Measured values published in US12414948B2, “Methods” (INTRA-CELLULAR THERAPIES, INC., priority 2022, dated 2025).

Tests used:
[1] = system: blood-brain barrier (NaFl brain penetration); assay: BBB permeability assay (sodium fluorescein), LPS paradigm; format: in vivo, mouse; conditions: mice, 2 h, label LPS = LPS alone, label Luma = Luma 3 mg/kg IP co-injected with LPS
Method: BBB Permeability Assay. […] Mice are perfused with 15 ml 1×PBS solution.
Systemic inflammation is associated with increased permeability of the BBB, and this has been discussed as a potential factor underlying depression pathophysiology. […] Forty-five minutes before sample collection, mice receive NaFl injections (200 μl of 10% solution, IP) (Table 3).

[2] = system: PBMCs from patients with schizophrenia and co-morbid depression; assay: Post-hoc analysis of inflammatory biomarkers in PBMCs, phase 3 clinical trial; format: in vivo, human
Method: A randomized, double-blind, placebo-controlled, phase 3 clinical trial was conducted with 450 patients with schizophrenia, aged 18 to 60 years, who were experiencing an acute exacerbation of psychosis. Patients were included if they were experiencing an acute exacerbation of psychosis, defined as a total score on the Brief Psychiatric Rating Scale of […] or higher, with a score of 4 or higher on 2 or more positive symptoms, and onset of the acute episode within 4 weeks of screening. Patients were required to have a score of 4 or higher, indicating moderate to severe disease severity, on the Clinical Global Impression-Severity of Illness (CGI-S) at screening and baseline. Severity of illness was confirmed at baseline by a Positive and Negative Syndrome Scale (PANSS) total score of 70 or higher, indicating moderate to extreme symptoms of schizophrenia. A subgroup of these patients experienced co-morbid depression symptoms at baseline (defined as having a Calgary Depression Scale for Schizophrenia (CDSS) score greater than 6 at baseline). Full details of the clinical study were reported in Correll et al., JAMA Psychiatry, 77(4): 349-358 (2020).
Using blood samples stored from the study, a post-hoc analysis of inflammatory biomarkers in PBMCs from the patients with schizophrenia and co-morbid depression is conducted. […] Day 0 samples are available for 20 patients, while day 28 samples are available only for 18 patients. Mean baseline CDSS is 10.0, and mean baseline PANSS total score is 88.7 in the selected patients.
Samples were processed to isolate PBMC according to standard procedures using the Ficoll-Paque method. Statistical analysis was performed using the paired t-test, two-tailed. Samples were tested for C-reactive protein (CRP), serum amyloid A (SAA), soluble CAM-1, soluble VCAM-1, IL-1β, TNF-αL, IL-6, IL-10, IL-2, IL-8, IL-13, and IFN-γ. ICAM-1 and VCAM-1 are expressed by the vascular endothelium, macrophages, and lymphocytes. Upon cytokine stimulation, their concentrations greatly increase. ICAM-1 can be induced by IL-1β and TNF. ICAM and VCAM proteins may also be involved in pathogen transit into CNS.
The results are shown in the table below (biomarker levels expressed in ng/mL; some values of N are less than the patient totals due to samples with levels of biomarker below the minimum for quantification): […]

[3] = system: hippocampal mRNA (Il1b, Il6, Tnfa, Il10, Cldn5); assay: Hippocampal mRNA (qRT-PCR) after acute restraint stress; format: in vivo, mouse; conditions: mice, 2 h restraint stress, Luma 3 mg/kg IP
Method: Quantitative Real-Time PCR. Mouse hippocampal tissue is homogenized with glass beads in 1 mL of TRIzol reagent using a BeadBeater (Biospec Products, Bartlesville, OK). Heavy phase-lock gel tubes enabled separation of phases following the addition of 400 μL chloroform to the sample and centrifugation at 12,000 rpm for 10 minutes at room temperature. RNA is extracted using Qiagen Rneasy kit (Qiagen, Hilden, Germany). For cDNA synthesis, 2 μg of total RNA is used (SuperScript IV Reverse Transcriptase; ThermoFisher Scientific, Waltham, MA). The purity and concentration of RNA is measured with a Nanodrop spectrophotometer; the optical density (OD) 260/280 and OD 260/230 are within 1.8-2.3. In the hippocampus, 4 key markers of pro- and anti-inflammatory cytokines and chemokines (Il1b: ID Mm00434228_m1, Tnfa: ID Mm00443258_m1, 116: ID Mm00446190_m1, and I110: ID Mm01288386_m1; ThermoFisher Scientific) are initially chosen for analysis (n=5-12 per group). In subsequent experiments, the transcripts for other markers of inflammation are chosen for analysis including Icam1 (ID Mm00516023_m1; a cell adhesion molecule involved in immune cell migration), Cldn5 (ID Mm00727012_s1; a tight junctions protein), colony stimulating factor 1 (Csf1: ID Mm00432686_m1; a factor that regulates microglia function) and its receptor Csf1r (ID Mm01266652_m1), and the nucleotide binding and oligomerization domain-like receptor family pyrin domain-containing 3 inflammasome complex (Nlrp3: Mm00840904_m1). Gapdh (ID Mm99999915_g1) is chosen as a housekeeping gene. […] All mRNAs are measured by qRT-PCR on ABI Prism 7900HT system using TaqMan Gene Expression Assays. […]
Using similar procedures as described above, serum corticosterone levels and hippocampal Cldn5 mRNA expression are measured as well (corticosterone is measured using a commercial ELISA kit).

[4] = system: serum cytokines IL-1b, IL-6, TNF-alpha, IL-10; assay: Serum cytokine protein (Multiplex MSD) after acute restraint stress; format: in vivo, mouse; conditions: mice, 2 h restraint stress; Luma 3 mg/kg IP immediately before
Method: Multiplex Assays. In mouse serum, protein levels of IL-1b, IL-6, IL-10 and TNF-alpha are measured using a V-Plex Meso Scale Discovery (MSD) Multiplex spot assay Mouse Neuroinflammation 1 panel (Meso Scale Diagnostics, Rockville, MD). All samples are run in duplicates or triplicates according to manufacturer instructions and analyzed with MSD Discovery Workbench software (Meso Scale Diagnostics).
Restraint Stress Protocol.
Control mice receive vehicle treatment and are returned to their home cage before sample collection. Protein concentration is measured using the Multiplex MSD assay V-Plex technology, normalized to the control group. Results are expressed in pg/mL.

[5] = Day 28 of 60 mg lumateperone once daily, PBMC, schizophrenia patients with co-morbid depression
[6] = relative change normalized to control (Dct method)

Row | Molecule | NaFl brain penetration (cerebrum/serum ratio) [1] | CRP, Median [2, 5] | IFN-γ, Average [2, 5] | IFN-γ, Median [2, 5] | IL-1β, Median [2, 5] | IL-2, Average [2, 5] | IL-2, Median [2, 5] | IL-6, Average [2, 5] | IL-6, Median [2, 5] | IL-8, Median [2, 5] | IL-10, Median [2, 5] | TNF-α, Average [2, 5] | TNF-α, Median [2, 5] | sVCAM-1, Median [2, 5] | Levels of inflammatory biomarkers in blood cells (PBMCs) ([2]; after 28 days of treatment, versus baseline, patients with schizophrenia and co-morbid depression) | Hippocampal mRNA expression Cldn5 ([3]; normalized to control) | Hippocampal cytokine mRNA expression IL-1b [3, 6] | Hippocampal cytokine mRNA expression IL-6 [3, 6] | Serum cytokine concentration IL-1b [4]
1 | lipopolysaccharide [LPS, reference compound] | 1.406 ± 0.0873 arbitrary units normalized to control | – | – | – | – | – | – | – | – | – | – | – | – | – | – | – | – | – | –
2 | CN1CCN2c3c(cccc31)[C@@H]1CN(CCCC(=O)c3ccc(F)cc3)CC[C@@H]12 [Luma, lumateperone] | – | 38.0 ng/mL | 0.86 ng/mL | 0.71 ng/mL | 0.74 ng/mL | 0.37 ng/mL | 0.25 ng/mL | 0.55 ng/mL | 0.32 ng/mL | 44.0 ng/mL | 0.21 ng/mL | 0.83 ng/mL | 0.43 ng/mL | 42.0 ng/mL | significantly reduced | 0.330 | 0.39 | −0.051 | 0.81 pg/mL
